Results: patent US11957668B2, “Kinase mutation-associated neurodegenerative disorders” (MEMORIAL SLOAN KETTERING CANCER CENTER, priority 2017, dated 2024)

What was measured:
YFP+ microglia = assay: Protein-level expression of inflammatory and adhesion markers in YFP+ microglia and spinal cord (flow cytometry, immunostaining, Bioplex); assay type: in vivo, mouse; conditions: BRAF^VE mice, following PLX4720 treatment
Description: Preparation of cell suspensions, flow cytometry and cell sorting. Pregnant females were killed by exposure to CO2. Embryos were removed from the uterus, washed in 4° C. phosphate-buffered saline (PBS, Invitrogen) and dissected under a Leica M80 microscope. For blood phenotyping of adult mice, mice were anaesthetized and blood was collected by cardiac puncture. Bone marrow was collected by flushing one leg with 5 ml RPMI (Invitrogen). For flow cytometry experiments, organs were incubated in PBS containing 1 mg/ml collagenase D (Roche), 100 U/ml DNase I (Sigma), 2.4 mg/ml of dispase (Invitrogen) and 3% FCS (Invitrogen) at 37° C. for 30 min prior to mechanical disruption. For embryonic tissue incubation time at 37° C. was reduced to 20 min. For cell sorting, tissues were digested for 30 min at RT in PBS containing 2 mg/ml of collagenase D (Roche), 200 U/ml DNase I (Sigma), 4.8 mg/ml of dispase (Invitrogen), 3% FCS (Invitrogen) and 1 uM of flavopiridol (Sigma) followed by mechanical disruption under a 100 um filter. Cell suspensions were centrifuged at 320 g for 7 min, resuspended in FACS buffer (PBS, 0.5% BSA and 2 mm EDTA) containing purified anti-CD16/32 (1:100 dilution) and 5% normal mouse, 5% normal rat and 5% normal rabbit serum and incubated for 15 min at 4° C. […] For FMO (fluorescence minus one), brain cell suspensions from BRAF^WT and BRAF^VE mice were mixed prior to staining. […]

[1] = tested on: Csf1r^MeriCreMer; BRAF^V600E; Rosa26^LSL-YFP mice
Description: Mice. […] Genotyping was performed according to protocols described previously for Csf1r^iCre Csf1r^MeriCreMer, CD11^Cre and BRAF^LSL-V600E mice. Cre recombination in Csf1r^MeriCreMer; Rosa26^LSL-YFP; BRAF^LSL-V600E embryos was induced by single injection at E8.5 of 37.5 mg per kg (body weight) of 4-hydroxytamoxifen (OH-TAM, Sigma) into pregnant females. OH-TAM was supplemented with 18.75 mg per kg (body weight) progesterone (Sigma) to counteract the mixed oestrogen agonist effects of tamoxifen, which can result in fetal abortions. Embryonic development was estimated considering the day of vaginal plug formation as 0.5 dpc. […] BRAF^WT and BRAF^VE male and female littermates were assigned randomly into the control or treated group. Scoring of mice was performed blinded and at least weekly by assessing hindlimb reflexes and other behavioral phenotypes such as axial rolling. The investigators were not blinded to allocation during experiments and outcome assessment.
Footprint analysis. Mice were given two trials to run down a runway before the experiment. Mouse forepaws and hindpaws were painted with red and blue ink, respectively. Mice were then allowed to run down a runway lined with white paper. At least four steps from the middle portion of each run were measured for (1) overlap between forepaw and hindpaw placement, (2) stride length, (3) front-base width (the distance between the right and left forelimb strides), and (4) hind-base width (the distance between the right and left hindlimb strides). Mean values were used for graphs and statistical analyses.
As a readout, hind limb clasping reflexes were examined every week and footprint assays were performed as described above before treatment and every 4 weeks during treatment.
To determine the potential effects of BRAF^V600E macrophage clones in adult tissues, a large cohort (n=155) of BRAF^VE mice and littermate controls were analyzed.

## CCCS(=O)(=O)Nc1ccc(F)c(C(=O)c2c[nH]c3ncc(Cl)cc23)c1F [PLX4720]
YFP+ microglia
  expression of Dectin-1 (Clec7a), LFA-1 (CD11a), VLA-4 (CD49d), the Pdgf receptor, Il1b, and Il17a at the protein level: decrease
[1]; PLX4720-impregnated chow 417 mg/kg from 3 months of age, preliminary, small group
  onset of neurologic disease (cumulative incidence of the ataxic phenotype): delays but does not totally prevent the onset of neurologic disease
[1]; ad libitum PLX4720 diet started at one or three months of age
  disease progression: mitigated disease progression in both cases
[1]; by 9 months of age, PLX4720 diet
  BRAF^VE mice alive: 80%
[1]; by 9 months of age, PLX4720 diet, score scale 1-4
  average clinical score: 2
[1]; treatment of adult mice with BRAF^V600E mosaicism
  course of the neurological disease and mortality: slows the course of the neurological disease and reduces its mortality
